Experimental data taken from the supplement of paper PMC11208160.

Test: recombinant barcode read abundance after kanamycin selection (control-corrected) (log10(CPM+1)); higher = more efficient recombination; sequences stand for … in AGTGCAGAGAAAATCGGCCAGTTTTCTCTGCCTGCAGTCCGCATGCCGT…AGATTTATGCAGCGGACTGCCTTTCTCCCAAAGTGATAAACCGGACAGTATCATGGACCGGTTTTCCCGGTAATCCGTATTTGCAAGGTTGGTTTCACT; site = the 11-nt target
How it was run: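 The screen was pooled in E. coli and paired targets with IS621 bridge RNA target-binding loops. Recombination efficiency is taken from barcode counts per million at recombinant junctions, averaged and adjusted against the control. Values, in the form log10(CPM+1), come from duplicate plating on chloramphenicol/ampicillin LB agar or on chloramphenicol/ampicillin/kanamycin with 0.1 mM IPTG.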
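Also: IS621 recombinase and bridge RNA in Escherichia coli cells.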

Sequence	recombinant barcode read abundance (log10)
TAGTACCCTTGGGTTCTAACCTGTTGCAA (site TAGTACCCTTT)	0.801
TAGTACGCTTGGGTTCTAACCTGTTGCAG (site TAGTAAGCTCA)	0.12
TAGTACGCTTGGGTTCTAACCTGTTGCAG (site TAGTACGCTCT)	1.8
TAGTACGCTTGGGTTCTAACCTGTTGCTT (site ACACGGCCTCG)	0.331
TAGTACGCTTGGGTTCTAACCTGTTGCTT (site TAGTACGCTAA)	0.848
TAGTACTCTTGGGTTCTAACCTGTTGCTG (site TAGTACTCTAA)	0.244
TAGTACTCTTGGGTTCTAACCTGTTGCTG (site TAGTACTCTCA)	1.06
TAGTACTCTTGGGTTCTAACCTGTTGCTG (site TAGTACTCTGA)	0.053
TAGTACTCTTGGGTTCTAACCTGTTGCTG (site TAGTACTCTTA)	0.0609
TAGTAGTCTTGGGTTCTAACCTGTTGCAT (site TAGTAGTCTAA)	0.503
TAGTAGTCTTGGGTTCTAACCTGTTGCAT (site TAGTAGTCTAC)	1.14
TAGTAGTCTTGGGTTCTAACCTGTTGCAT (site TAGTAGTCTAG)	0.596
TAGTAGTCTTGGGTTCTAACCTGTTGCAT (site TAGTAGTCTAT)	2.12
TAGTAGTCTTGGGTTCTAACCTGTTGCTT (site TAGTAGTCTAA)	1.55
TAGTAGTCTTGGGTTCTAACCTGTTGCTT (site TAGTAGTCTAC)	0.635
TAGTAGTCTTGGGTTCTAACCTGTTGCTT (site TAGTAGTCTAG)	0.659
TAGTAGTCTTGGGTTCTAACCTGTTGCTT (site TAGTAGTCTAT)	1.15
TAGTGATCTTGGGTTCTAACCTGTTGCCT (site TAATGATCTAG)	0
TAGTGATCTTGGGTTCTAACCTGTTGCCT (site TACTGATCTAG)	0.072
TAGTGATCTTGGGTTCTAACCTGTTGCCT (site TAGTGATCTAG)	0.783
TAGTGATCTTGGGTTCTAACCTGTTGCCT (site TATTGATCTAG)	0.0361
TAGTGGCCTTGGGTTCTAACCTGTTGCTA (site CCTGACTCTAT)	0

Sequence	recombinant barcode read abundance (log10)
TAGTGGCCTTGGGTTCTAACCTGTTGCTA (site TAGTGGCCTTA)	0.132
TAGTGGTCTTGGGTTCTAACCTGTTGCTA (site TAGTGGTCTAT)	0.403
TAGTGGTCTTGGGTTCTAACCTGTTGCTA (site TAGTGGTCTTA)	1.01
TAGTTTCCTTGGGTTCTAACCTGTTGCGT (site TAGTATCCTAC)	0.3
TAGTTTCCTTGGGTTCTAACCTGTTGCGT (site TAGTCTCCTAC)	0.0219
TAGTTTCCTTGGGTTCTAACCTGTTGCGT (site TAGTGTCCTAC)	0.206
TAGTTTCCTTGGGTTCTAACCTGTTGCGT (site TAGTTTCCTAC)	0.875
TAGTTTGCTTGGGTTCTAACCTGTTGCGA (site CGTCGGACTCT)	0.00829
TAGTTTGCTTGGGTTCTAACCTGTTGCGA (site TAGTTTGCTTC)	0.171
TATAATTCTTGGGTTCTAACCTGTTGCTT (site TATAATTCTAA)	0.164
TATAATTCTTGGGTTCTAACCTGTTGCTT (site TTCAATTCTAA)	0.146
TATACAACTTGGGTTCTAACCTGTTGCCT (site TATAAAACTAG)	0.089
TATACAACTTGGGTTCTAACCTGTTGCCT (site TATACAACTAG)	0.112
TATACAACTTGGGTTCTAACCTGTTGCCT (site TATAGAACTAG)	0.0301
TATACAACTTGGGTTCTAACCTGTTGCCT (site TATATAACTAG)	0.0752
TATACAGCTTGGGTTCTAACCTGTTGCCT (site TAAACAGCTAG)	0.156
TATACAGCTTGGGTTCTAACCTGTTGCCT (site TACACAGCTAG)	0.192
TATACAGCTTGGGTTCTAACCTGTTGCCT (site TAGACAGCTAG)	0.0546
TATACAGCTTGGGTTCTAACCTGTTGCCT (site TATACAGCTAG)	0.592
TATACTACTTGGGTTCTAACCTGTTGCCT (site TATACTACTAG)	0.0122
TATACTACTTGGGTTCTAACCTGTTGCCT (site TATACTGCTAG)	0.0258
TATACTACTTGGGTTCTAACCTGTTGCTT (site CACACTACTAA)	0.0534

Sequence	recombinant barcode read abundance (log10)
TATACTACTTGGGTTCTAACCTGTTGCTT (site TATACTACTAA)	0.0375
TATAGGACTTGGGTTCTAACCTGTTGCGT (site GATAGGACTAC)	0.0102
TATAGGACTTGGGTTCTAACCTGTTGCGT (site TATAGGACTAC)	2.03
TATAGTACTTGGGTTCTAACCTGTTGCCT (site TATAGTACTAG)	0.152
TATAGTACTTGGGTTCTAACCTGTTGCCT (site TATTGTCCTAG)	0.0337
TATCCATCTTGGGTTCTAACCTGTTGCCT (site TAACCATCTAG)	0.0695
TATCCATCTTGGGTTCTAACCTGTTGCCT (site TACCCATCTAG)	0.0382
TATCCATCTTGGGTTCTAACCTGTTGCCT (site TAGCCATCTAG)	0.0545
TATCCATCTTGGGTTCTAACCTGTTGCCT (site TATCCATCTAG)	0.618
TATGAGGCTTGGGTTCTAACCTGTTGCCT (site TATGAGGCTAG)	0.433
TATGAGGCTTGGGTTCTAACCTGTTGCCT (site TATGCGGCTAG)	0.26
TATGAGGCTTGGGTTCTAACCTGTTGCCT (site TATGGGGCTAG)	0.0447
TATGAGGCTTGGGTTCTAACCTGTTGCCT (site TATGTGGCTAG)	0.162
TATGGAGCTTGGGTTCTAACCTGTTGCAG (site GTTGGAGCTCT)	1.14
TATGGAGCTTGGGTTCTAACCTGTTGCAG (site TATGGAGCTCT)	2.34
TATGTAGCTTGGGTTCTAACCTGTTGCCC (site TATGTAGCTAG)	0.226
TATGTAGCTTGGGTTCTAACCTGTTGCCC (site TATGTAGCTCG)	0.0813
TATGTAGCTTGGGTTCTAACCTGTTGCCC (site TATGTAGCTGG)	1.36
TATGTAGCTTGGGTTCTAACCTGTTGCCC (site TATGTAGCTTG)	0.239
TATTATACTTGGGTTCTAACCTGTTGCAT (site TATTATACTAA)	0.0319
TATTATACTTGGGTTCTAACCTGTTGCAT (site TATTATACTAC)	0.0379
TATTATACTTGGGTTCTAACCTGTTGCAT (site TATTATACTAG)	0.0602

Sequence	recombinant barcode read abundance (log10)
TATTATACTTGGGTTCTAACCTGTTGCAT (site TATTATACTAT)	0.167
TATTATACTTGGGTTCTAACCTGTTGCGT (site TATTATACTAA)	0.116
TATTATACTTGGGTTCTAACCTGTTGCGT (site TATTATACTAC)	0.335
TATTATACTTGGGTTCTAACCTGTTGCGT (site TATTATACTAG)	0.0727
TATTATACTTGGGTTCTAACCTGTTGCGT (site TATTATACTAT)	0.16
TATTATACTTGGGTTCTAACCTGTTGCTT (site TATTATACTAA)	0.0915
TATTATACTTGGGTTCTAACCTGTTGCTT (site TATTATACTAC)	0.116
TATTATACTTGGGTTCTAACCTGTTGCTT (site TATTATACTAG)	0.245
TATTATACTTGGGTTCTAACCTGTTGCTT (site TATTATACTAT)	0.34
TATTCTACTTGGGTTCTAACCTGTTGCGC (site TATTCTACTAC)	0.0305
TATTCTACTTGGGTTCTAACCTGTTGCGC (site TATTCTACTCC)	0.0687
TATTCTACTTGGGTTCTAACCTGTTGCGC (site TATTCTACTGC)	0.0329
TATTCTACTTGGGTTCTAACCTGTTGCGC (site TATTCTACTTC)	0.0215
TATTGATCTTGGGTTCTAACCTGTTGCCT (site TAATGATCTAG)	0.347
TATTGATCTTGGGTTCTAACCTGTTGCCT (site TACTGATCTAG)	0.162
TATTGATCTTGGGTTCTAACCTGTTGCCT (site TAGTGATCTAG)	0.0784
TATTGATCTTGGGTTCTAACCTGTTGCCT (site TATTGATCTAG)	0.235
TATTGCCCTTGGGTTCTAACCTGTTGCCT (site TAATGCCCTAG)	0.203
TATTGCCCTTGGGTTCTAACCTGTTGCCT (site TATTGCCCTAG)	0.117
TCAAACCCTTGGGTTCTAACCTGTTGCGG (site TCAAACCCTCC)	1.6
